Test [1] relates to HT-29 colon carcinoma cells. The test is described as follows: Inhibition of HT-29 tumor cell proliferation (MTT cytotoxicity, 72 h). The test is classed as cell-based. The settings on record: HT-29, 72 h. How it is done: Cytotoxicity may be measured using standard methodology for adherent cell lines such as the microculture tetrazolium assay (MTT). Details of this assay have been published Cancer Research 48:589-601, 1988). Exponentially growing cultures of tumor cells such as the HT-29 colon carcinoma or LX-1 lung tumor are used to make microtiter plate cultures. Cells are seeded at 5000-20,000 cells per well in 96-well plates (in 150 μl of media), and grown overnight at 37° C. Test compounds are added, in dilutions varying from 10^-4 M to 10^-10 M. The cells are then incubated for 48-72 hours. To determine the number of viable cells in each well, the MTT dye is added (50 μl of 3 mg/ml solution of 3-(4,5-dimethylthiazol-2-yl)-2,5-diphenyltetrazolium bromide in saline). This mixture is incubated at 37° C. for 5 hours, and then 50 μl of 25% strength SDS (pH 2) is added to each well. After overnight incubation, the absorbance of each well at 550 nm is read using an ELISA reader. The values for the mean +/- SD of data from quadruplicate wells are calculated, using the formula % T/C (% cells treated/control). [formula]
The concentration of test compound which gives a T/C of 50% growth inhibition is designated as the IC50.
Inhibition of HT-29 tumor cell proliferation^a.
^a Dihydrodibenzoquinolinedione cytotoxicity studies were performed a
follows: HT29 cells were seeded (5000) into each well of 96 well dishes.
After plating overmight a titration of dihydrodibenzoquinolinedione was
added giving a final volume of 200 ul. Following incubation for 72 h 50 u
of MTT (3 mg/ml) in PBS was added to each well and incubated for 5 hours
at 37° C. The reaction was stopped by the addition of 50 ul of 25%
SDS, pH 2. After an overnight incubation at 37° C. the absorbance,
due to metabolized MTT, was read with a plate reader at 550 nm.
Cytotoxicity was calculate as the well absorbance expressed as a
percentage on nondrug treated control. All estimates were made in
^b 10^-2 M stock solution made in 10% acetic acid then diluted in
^c 10^-2 M stock solution made in 10% DMSO then diluted in media.
^d 10^-4 M stock solution made in 10% acetic acid/10% DMSO then
^e 10^-2 M stock suspention made in DMSO then diluted in media to […]

The next test concerns M5076 murine sarcoma. The test is described as follows: In vivo anti-tumor activity on M5076 murine sarcoma (survival). The arrangement: species or system C57BL/6 mice. The following applies: for % T/C: treated MST/control MST; for MST: treated on days 1.5 and 9. How it is done:
Compounds according to the invention may be further tested in any of the various preclinical assays for in vivo activity which are indicative of clinical utility. Such assays may be conducted with human tumors implanted in nude mice as xenografts or mouse tumors implanted in conventional mice in the strain of origin (syngeneic), as is well known in this field. Test compounds are evaluated for their antitumor efficacy following administration to the tumor-bearing mice.
More specifically, human tumors which have been grown in athymic nude mice or mouse tumors grown in their synergeneic host are transplanted into new recipient animals, using either tumor fragments which are about 50 mg in size or 1×10^6 cells harvested from ascites fluid. The day of transplantation is designated as day 0 and the host mice are subsequently injected intravenously or intraperitoneally with the test compounds, in group of 5 to 10 mice per dose level. The compounds are administered either as a single dose or on an intermittent or frequent dosing schedule at doses from 0.1 to 100 mg/kg body weight. Tumor size of solid tumors are measured by vernier calipers in two directions and the volume estimated by the formula: […]
Life span studies following i.p. administration of tumor cells are evaluated on the base of median survival time (MST). The MST of drug treated (T) mice are compared to the MST of control (C) mice and expressed as T/C percent. Compounds producing a T/C percent of >100% indicates some reduction in tumor burden. Values of 125 to 150% may be considered to reflect moderate activity, values of 150 to 200% good to excellent activity, and >200% outstanding activity.
In vivo anti-tumor activity of a Dihydrodibenzoquinolinedione analog on M5076 murine sarcoma^a.
^a C57BL/6 mice (6 per group) were inoculated with 10^6 M5076
cells on day 0. Mice were treated on days 1.5 and 9 with the
dimethanesulfonate salt of example 1 at the dose levels shown. Mice died
as a consequence of tumor burden with median survival times (MST) as
shown. In both studies meaningful antitumor activity was produce as
indicated by a treated MST/Control MST percentage (% T/C) being

The mark [2] stands for this setting: Homo sapiens, 10^-4 M stock solution made in 10% acetic acid/10% DMSO then diluted in media.
Setting [3] is: 10^-2 M stock solution made in 10% acetic acid then diluted in media.
Where [4] appears, read: Homo sapiens, 10^-2 M stock solution made in 10% acetic acid then diluted in media.
The mark [5] stands for this setting: 10^-2 M stock suspension made in DMSO then diluted in media to form a solution.
Where [6] appears, read: 10^-2 M stock solution made in 10% DMSO then diluted in media.
Where [7] appears, read: Homo sapiens, 10^-2 M stock solution made in 10% DMSO then diluted in media.

Where “and” joins values, the source holds several entries; their conditions need not be identical. Equal entries are not always repeated. Structures can show the parent of a compound that is named as a salt.

For orientation: IC50 means the point on the concentration scale where inhibition reaches its midpoint.

As for `O=C1c2cccc3cc4ccccc4c(c23)C(=O)N1CCCCNCCCN1C(=O)c2cccc3cc4ccccc4c(c23)C1=O` [Example 4, [3-(1,2-dihydro-1,3-dioxo-3H-dibenz[de,h]isoquinolin-2-yl)propyl][4-(1,2-dihydro-1,3-dioxo-3,4-dibenz[de,h]isoquinolin-2-yl)butyl]amine], the IC50 came out at 50 nM in test [1] (10^-4 M stock solution made in 10% acetic acid/10% DMSO then diluted in media) and 90 nM in test [1] (setting [2]).
In the case of `O=C1c2cccc3cc4ccccc4c(c23)C(=O)N1CCCNCCNCCCN1C(=O)c2cccc3cc4ccccc4c(c23)C1=O` [Example 10, N,N'-Bis[3-(1,2-dihydro-1,3-dioxo-3H-dibenz[de,h]isoquinolin-2-yl)propyl]-1,2-ethylenediamine], the IC50 in test [1] (setting [3]) was 90 nM; in test [1] (setting [4]), 100 nM.
`O=C1c2cccc3cc4c([N+](=O)[O-])cccc4c(c23)C(=O)N1CCNCCCNCCN1C(=O)c2cccc3cc4c([N+](=O)[O-])cccc4c(c23)C1=O` [Example 12, N,N'-Bis[2-(1,2-dihydro-8-nitro-1,3-dioxo-3H-dibenz[de,h]isoquinolin-2-yl)ethyl]-1,3-propanediamine]: the IC50 in test [1] (setting [5]) amounted to 40 nM; in test [1] (Homo sapiens, 10^-2 M stock suspension made in DMSO then diluted in media to form a solution), 30 nM.
Consider `O=C1c2cccc3cc4ccccc4c(c23)C(=O)N1CCNCCNCCN1C(=O)c2cccc3cc4ccccc4c(c23)C1=O` [Example 2, N,N'-Bis[2-(1,2-dihydro-1,3-dioxo-3H-dibenz[de,h]isoquinolin-2-yl)ethyl]-1,2-ethylenediamine], for which the IC50 was determined as 8 nM in test [1] (setting [3]) and 10 nM in test [1] (setting [4]).
In turn, `O=C1c2cccc3cc4ccccc4c(c23)C(=O)N1CCNCCN1C(=O)c2cccc3cc4ccccc4c(c23)C1=O` [Example 9, Bis[2-(1,2-dihydro-1,3-dioxo-3H-dibenz[de,h]isoquinolin-2-yl)ethyl)amine] yielded an IC50 in test [1] (setting [2]) of 20 nM.
In the case of `O=C1c2cccc3cc4ccccc4c(c23)C(=O)N1CCCNCCCN1C(=O)c2cccc3cc4ccccc4c(c23)C1=O` [Example 7, Bis[3-(1,2-dihydro-1,3-dioxo-3H-dibenz[de,h]isoquinolin-2-yl)propyl]amine], the midpoint of inhibition in test [1] (setting [4]), the IC50, lay at 20 nM.
Still for that read-out and setting: as for `O=C1c2cccc3cc4ccccc4c(c23)C(=O)N1CCCNCCCCNCCCN1C(=O)c2cccc3cc4ccccc4c(c23)C1=O` [Example 3, N,N'-Bis[3-(1,2-dihydro-1,3-dioxo-3H-dibenz[de,h]isoquinolin-2-yl)propyl]-1,4-butanediamine], the figure is 200 nM.
Consider `O=C1c2cccc3cc4ccccc4c(c23)C(=O)N1CCNCCCNCCN1C(=O)c2cccc3cc4ccccc4c(c23)C1=O` [Example 1, N,N'-Bis[2-(1,2-dihydro-1,3-dioxo-3H-dibenz[de,h]isoquinoline-2-yl)ethyl]-1,3-propanediamine], for which the IC50 in test [1] (setting [3]) came out at 5 nM; in test [1] (setting [4]) it was 4 nM.
Turning to `CN(CCN(C)CCN1C(=O)c2cccc3cc4ccccc4c(c23)C1=O)CCN1C(=O)c2cccc3cc4ccccc4c(c23)C1=O` [Example 14, N,N'-Bis[2-(1,2-dihydro-1,3-dioxo-3H-dibenz[de,h]isoquinolin-2-yl)ethyl]-N,N'-dimethyl-1,2-ethylenediamine], the values for the IC50 in test [1] (setting [6]) and in test [1] (setting [7]) were 80 nM and 70 nM, respectively.
Turning to `O=C1c2cccc3cc4c([N+](=O)[O-])cccc4c(c23)C(=O)N1CCNCCNCCN1C(=O)c2cccc3cc4c([N+](=O)[O-])cccc4c(c23)C1=O` [Example 13, N,N'-Bis-[2-(1,2-dihydro-8-nitro-1,3-dioxo-3H-dibenz[de,h]isoquinolin-2-yl)ethyl]1,3-ethylenediamine], the IC50 in test [1] (setting [5]) was 100 nM and 90 nM.
With `O=C1c2cccc3cc4ccccc4c(c23)C(=O)N1CCNCCCNCCN1C(=O)c2cccc3cc4ccccc4c(c23)C1=O` [1 2 CH3 --SO3 H salt], the IC50 was 20 nM in test [1] (setting [6]) and 10 nM in test [1] (setting [7]). Moreover, the “% T/C” value in the test on M5076 murine sarcoma (Experiment 1, 1.8 mg/kg) is on record as 154%; in the test on M5076 murine sarcoma (Experiment 1, 2.6 mg/kg), 123%; with M5076 murine sarcoma (Experiment 1, 4 mg/kg), “toxic”; in the test with M5076 murine sarcoma (Experiment 2, 1.2 mg/kg) it was 128%; in the test on M5076 murine sarcoma (Experiment 2, 1.8 mg/kg) it was 98%; in the test with M5076 murine sarcoma (Experiment 2, 2.7 mg/kg), “toxic”. Besides, the MST with M5076 murine sarcoma (Experiment 1, 1.8 mg/kg, control MST 19.5) is 30; in the test on M5076 murine sarcoma (Experiment 1, 2.6 mg/kg, control MST 19.5), 24; in the test with M5076 murine sarcoma (Experiment 1, 4 mg/kg, control MST 19.5), “toxic”; with M5076 murine sarcoma (Experiment 2, 1.2 mg/kg, control MST 23.5), 30; in the test with M5076 murine sarcoma (Experiment 2, 1.8 mg/kg, control MST 23.5) it was 23; with M5076 murine sarcoma (Experiment 2, 2.7 mg/kg, control MST 23.5), “toxic”. Besides, the “treated MST/Control MST percentage (% T/C)” value with M5076 murine sarcoma (both studies, reproducibly, meaningful antitumor activity) was “greater than 125%”.
In test [1] (setting [7]), `O=C1c2cccc3cc4ccccc4c(c23)C(=O)N1CCNCCCCCNCCN1C(=O)c2cccc3cc4ccccc4c(c23)C1=O` [Example 15, N,N'-Bis[2-(1,2-dihydro-1,3-dioxo-3H-dibenz[de,h]isoquinolin-2-yl)ethyl]-1,5-pentanediamine] returned a 50% inhibitory concentration (IC50) of 8 nM.
Turning to `O=C1c2cccc3cc4ccccc4c(c23)C(=O)N1CCCNCCCNCCCN1C(=O)c2cccc3cc4ccccc4c(c23)C1=O` [Example 11, N,N'-Bis[3-(1,2-dihydro-1,3-dioxo-3H-dibenz[de,h]isoquinolin-2-yl)propyl]-1,3-propanediamine], the half-inhibitory concentration (IC50) came to 80 nM in test [1] (setting [3]) and 100 nM in test [1] (setting [4]).

The values are drawn from patent US5703089A, “Dihydrodibenzisoquinolinediones” (Knoll Aktiengesellschaft, priority 1996, dated 1997).
